We go through 14 compounds from US20240238423A9, “TETRAHYDROISOQUINOLINE HETEROBIFUNCTIONAL BCL-XL DEGRADERS” (Treeline Biosciences, Inc., priority 2022, published 2024).

Read-outs that look alike come from different tables or passages of the source.

This assay has as its target T1, Human BCL-XL protein (N-terminal HiBiT tagged BCL-XL in HT1080 cells) (Homo sapiens, UniProt Q07817).
T1 construct: expressed in transfected cells; host or cells: HT-1080 (ATCC CCL-121), stably transduced with lentivirus pLV-UBC-N-HiBiT-BCL-XL-PGK-puro and selected with puromycin
Description: HiBiT based degradation assay. In kind it is cell-based. The note with it: HT1080 cells expressing HiBiT-BCL-XL; for Ymin (6 h) / Ymin (24 h): BCL-XL degradation normalized with DMSO control; for DC50: BCL-XL degradation. An outline of the steps: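 This HiBiT degradation assay measured loss of BCL-XL in HT1080 cells that stably express an N-terminal HiBiT-BCL-XL fusion delivered by lentivirus. Cells were added to compound-spotted 384-well plates, and luminescence was read on a PHERAstar FSX reader. Signal was expressed relative to DMSO controls, curves were fitted by four-parameter logistic regression, and for hook-shaped curves the Ymin point served as the bottom plateau when calculating EC50.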
In general terms: The HiBiT peptide binds its large partner to form an active luciferase.

T1 sequence (Q07817 whole entry): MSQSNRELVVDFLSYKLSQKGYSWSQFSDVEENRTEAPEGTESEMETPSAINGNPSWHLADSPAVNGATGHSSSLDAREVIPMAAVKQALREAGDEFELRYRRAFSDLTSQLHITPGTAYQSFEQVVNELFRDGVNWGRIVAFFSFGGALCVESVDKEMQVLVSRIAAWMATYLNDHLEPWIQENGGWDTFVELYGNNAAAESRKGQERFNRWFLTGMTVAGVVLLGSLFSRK

On to `Cc1c(Oc2cccc(CCCN3CCN(c4ccc5c(C6CCC(=O)NC6=O)nn(C)c5c4)CC3)c2)cccc1-c1ccc(N2CCc3cccc(C(=O)Nc4nc5ccccc5s4)c3C2)nc1C(=O)O` (stereo not shown) [Compound 195, 6-[8-(1,3-benzothiazol-2-ylcarbamoyl)-3,4-dihydro-1H-isoquinolin-2-yl]-3-[3-[3-[3-[4-[3-(2,6-dioxo-3-piperidyl)-1-methyl-indazol-6-yl]piperazin-1-yl]propyl]phenoxy]-2-methyl-phenyl]pyridine-2-carboxylic acid], for which the “Ymin (6 h)” value (6 h) is “C (Ymin ≥ 70%)”. For the setting “24 h”, the “Ymin (24 h)” value is given as “B (50% ≤ Ymin < 70%)”. Moreover, the DC50 (6 h, read-out: EC50 (6 h)) is less than 100 nM and the DC50 (24 h, read-out: EC50 (24 h)) was less than 100 nM.
On to `Cc1c(OCCC(F)(F)C2CCN(CC(=O)Nc3cccc4c(C5CCC(=O)NC5=O)nn(C)c34)CC2)cccc1-c1ccc(N2CCc3cccc(C(=O)Nc4nc5ccccc5s4)c3C2)nc1C(=O)O` (stereo not shown) [Compound 196, 6-(8-(benzo[d]thiazol-2-ylcarbamoyl)-3,4-dihydroisoquinolin-2(1H)-yl)-3-(3-(3-(1-(2-((3-(2,6-dioxopiperidin-3-yl)-1-methyl-1H-indazol-7-yl)amino)-2-oxoethyl)piperidin-4-yl)-3,3-difluoropropoxy)-2-methylphenyl)picolinic acid], for which, under “24 h”, the “Ymin (24 h)” value is reported as “B (50% ≤ Ymin < 70%)”. Further, where the note is “24 h, read-out: EC50 (24 h)”, the DC50 was 100 to 1000 nM.
Regarding `Cc1c(OCCC[C@H]2CCN(CC(=O)Nc3cccc4c(C5CCC(=O)NC5=O)nn(C)c34)CC2(F)F)cccc1-c1ccc(N2CCc3cccc(C(=O)Nc4nc5ccccc5s4)c3C2)nc1C(=O)O` (stereo partly drawn) [Compound 197a, 6-(8-(benzo[d]thiazol-2-ylcarbamoyl)-3,4-dihydroisoquinolin-2(1H)-yl)-3-(3-(3-((4S)-1-(2-((3-(2,6-dioxopiperidin-3-yl)-1-methyl-1H-indazol-7-yl)amino)-2-oxoethyl)-3,3-difluoropiperidin-4-yl)propoxy)-2-methylphenyl)picolinic acid], the “Ymin (24 h)” value (24 h) is “B (50% ≤ Ymin < 70%)”. For the setting “24 h, read-out: EC50 (24 h)”, the DC50 was 100 to 1000 nM.
`Cc1c(OCCC[C@@H]2CCN(CC(=O)Nc3cccc4c(C5CCC(=O)NC5=O)nn(C)c34)CC2(F)F)cccc1-c1ccc(N2CCc3cccc(C(=O)Nc4nc5ccccc5s4)c3C2)nc1C(=O)O` (stereo partly drawn) [Compound 197b, 6-(8-(benzo[d]thiazol-2-ylcarbamoyl)-3,4-dihydroisoquinolin-2(1H)-yl)-3-(3-(3-((4R)-1-(2-((3-(2,6-dioxopiperidin-3-yl)-1-methyl-1H-indazol-7-yl)amino)-2-oxoethyl)-3,3-difluoropiperidin-4-yl)propoxy)-2-methylphenyl)picolinic acid]: for the setting “24 h”, the “Ymin (24 h)” value is recorded as “B (50% ≤ Ymin < 70%)”. The DC50 (24 h, read-out: EC50 (24 h)) lay within 100 to 1000 nM.
As for `Cc1c(OCCN2CCN(CC3CCN(c4ccc5c(C6CCC(=O)NC6=O)nn(C)c5c4)CC3)CC2)cccc1-c1ccc(N2CCc3cccc(C(=O)Nc4nc5ccccc5s4)c3C2)nc1C(=O)O` (stereo not shown) [Compound 198, 6-(8-(benzo[d]thiazol-2-ylcarbamoyl)-3,4-dihydroisoquinolin-2(1H)-yl)-3-(3-(2-(4-((1-(3-(2,6-dioxopiperidin-3-yl)-1-methyl-1H-indazol-6-yl)piperidin-4-yl)methyl)piperazin-1-yl)ethoxy)-2-methylphenyl)picolinic acid], under “24 h”, the “Ymin (24 h)” value was “A (Ymin < 50%)”. For the same compound, the DC50 (24 h, read-out: EC50 (24 h)) is less than 100 nM.
Regarding `Cc1c(Oc2ccc(CC(F)(F)CN3CCN(c4cccc5c(C6CCC(=O)NC6=O)nn(C)c45)CC3)cc2)cccc1-c1ccc(N2CCc3cccc(C(=O)Nc4nc5ccccc5s4)c3C2)nc1C(=O)O` (stereo not shown) [Compound 201, 6-[8-(1,3-benzothiazol-2-ylcarbamoyl)-3,4-dihydro-1H-isoquinolin-2-yl]-3-[3-[4-[3-[4-[3-(2,6-dioxo-3-piperidyl)-1-methyl-indazol-7-yl]piperazin-1-yl]-2,2-difluoro-propyl]phenoxy]-2-methyl-phenyl]pyridine-2-carboxylic acid], under “6 h”, the “Ymin (6 h)” value is “B (50% ≤ Ymin < 70%)”. The “Ymin (24 h)” value (24 h) is “A (Ymin < 50%)”. The DC50 (6 h, read-out: EC50 (6 h)) lay within 1000 to 10000 nM and the DC50 (24 h, read-out: EC50 (24 h)) lay in the range of 1000 to 10000 nM.
As for `Cc1c(OCCCC[C@H]2CCCN(CC(=O)Nc3ccc4c(C5CCC(=O)NC5=O)nn(C)c4c3)C2)cccc1-c1ccc(N2CCc3cccc(C(=O)Nc4nc5ccccc5s4)c3C2)nc1C(=O)O` (stereo partly drawn) [Compound 202a, 6-[8-(1,3-benzothiazol-2-ylcarbamoyl)-3,4-dihydro-1H-isoquinolin-2-yl]-3-[3-[4-[(3S)-1-[2-[[3-(2,6-dioxo-3-piperidyl)-1-methyl-indazol-6-yl]amino]-2-oxo-ethyl]-3-piperidyl]butoxy]-2-methyl-phenyl]pyridine-2-carboxylic acid], the “Ymin (24 h)” value (24 h) is “A (Ymin < 50%)”. Moreover, the DC50 (24 h, read-out: EC50 (24 h)) was less than 100 nM.
As to `Cc1c(OCCCC[C@@H]2CCCN(CC(=O)Nc3ccc4c(C5CCC(=O)NC5=O)nn(C)c4c3)C2)cccc1-c1ccc(N2CCc3cccc(C(=O)Nc4nc5ccccc5s4)c3C2)nc1C(=O)O` (stereo partly drawn) [Compound 202b, 6-[8-(1,3-benzothiazol-2-ylcarbamoyl)-3,4-dihydro-1H-isoquinolin-2-yl]-3-[3-[4-[(3R)-1-[2-[[3-(2,6-dioxo-3-piperidyl)-1-methyl-indazol-6-yl]amino]-2-oxo-ethyl]-3-piperidyl]butoxy]-2-methyl-phenyl]pyridine-2-carboxylic acid], under “24 h”, the “Ymin (24 h)” value is given as “A (Ymin < 50%)”. Further, the DC50 (24 h, read-out: EC50 (24 h)) was less than 100 nM.
Regarding `Cc1c(OCCCCC2CCN(CC(=O)Nc3ccc4c(C5CCC(=O)NC5=O)nn(C)c4c3)CC2)cccc1-c1ccc(N2CCc3cccc(C(=O)Nc4nc5ccccc5s4)c3C2)nc1C(=O)O` (stereo not shown) [Compound 203, 6-(8-(benzo[d]thiazol-2-ylcarbamoyl)-3,4-dihydroisoquinolin-2(1H)-yl)-3-(3-(4-(1-(2-((3-(2,6-dioxopiperidin-3-yl)-1-methyl-1H-indazol-6-yl)amino)-2-oxoethyl)piperidin-4-yl)butoxy)-2-methylphenyl)picolinic acid], the “Ymin (6 h)” value (6 h) is given as “B (50% ≤ Ymin < 70%)”. Under “24 h”, the “Ymin (24 h)” value was “A (Ymin < 50%)”. Moreover, the DC50 by setting is: (6 h, read-out: EC50 (6 h)) less than 100 nM; (24 h, read-out: EC50 (24 h)) less than 100 nM.
On to `Cc1c(O[C@H]2CC[C@H](CCCCN3CCN(c4cccc5c(C6CCC(=O)NC6=O)nn(C)c45)CC3)CC2)cccc1-c1ccc(N2CCc3cccc(C(=O)Nc4nc5ccccc5s4)c3C2)nc1C(=O)O` (stereo partly shown) [Compound 204a, 6-(8-(benzo[d]thiazol-2-ylcarbamoyl)-3,4-dihydroisoquinolin-2(1H)-yl)-3-(3-(((1s,4r)-4-(4-(4-(3-(2,6-dioxopiperidin-3-yl)-1-methyl-1H-indazol-7-yl)piperazin-1-yl)butyl)cyclohexyl)oxy)-2-methylphenyl)picolinic acid], for which the “Ymin (24 h)” value (24 h) is on record as “B (50% ≤ Ymin < 70%)”. Also, the DC50 (24 h, read-out: EC50 (24 h)) is less than 100 nM.
Regarding `Cc1c(OCCCCCCCCN2CCN(c3ccc4c(C5CCC(=O)NC5=O)nn(C)c4c3)CC2)cccc1-c1ccc(N2CCc3cccc(C(=O)Nc4nc5ccccc5s4)c3C2)nc1C(=O)O` (stereo not shown) [Compound 205, 6-[8-(1,3-benzothiazol-2-ylcarbamoyl)-3,4-dihydro-1H-isoquinolin-2-yl]-3-[3-[8-[4-[3-(2,6-dioxo-3-piperidyl)-1-methyl-indazol-6-yl]piperazin-1-yl]octoxy]-2-methyl-phenyl]pyridine-2-carboxylic acid], the “Ymin (6 h)” value (6 h) was “B (50% ≤ Ymin < 70%)”. The “Ymin (24 h)” value (24 h) is reported as “A (Ymin < 50%)”. Moreover, the DC50 was less than 100 nM (6 h, read-out: EC50 (6 h)) and less than 100 nM (24 h, read-out: EC50 (24 h)).
For the compound `Cc1c(OCCCCCCCN2CCN(c3cccc4c(C5CCC(=O)NC5=O)nn(C)c34)CC2)cccc1-c1ccc(N2CCc3cccc(C(=O)Nc4nc5ccccc5s4)c3C2)nc1C(=O)O` (stereo not shown) [Compound 206, 6-[8-(1,3-benzothiazol-2-ylcarbamoyl)-3,4-dihydro-1H-isoquinolin-2-yl]-3-[3-[7-[4-[3-(2,6-dioxo-3-piperidyl)-1-methyl-indazol-7-yl]piperazin-1-yl]heptoxy]-2-methyl-phenyl]pyridine-2-carboxylic acid], the “Ymin (6 h)” value (6 h) is “C (Ymin ≥ 70%)”. Moreover, the “Ymin (24 h)” value (24 h) was “B (50% ≤ Ymin < 70%)”. Besides, the DC50 was 1000 to 10000 nM (6 h, read-out: EC50 (6 h)) and less than 100 nM (24 h, read-out: EC50 (24 h)).
For the compound `Cc1c(OCCC[C@@H]2CCCN(CC(=O)Nc3ccc4c(C5CCC(=O)NC5=O)nn(C)c4c3)C2)cccc1-c1ccc(N2CCc3cccc(C(=O)Nc4nc5ccccc5s4)c3C2)nc1C(=O)O` (stereo partly drawn) [Compound 207a, 6-(8-(benzo[d]thiazol-2-ylcarbamoyl)-3,4-dihydroisoquinolin-2(1H)-yl)-3-(3-(3-((3S)-1-(2-((3-(2,6-dioxopiperidin-3-yl)-1-methyl-1H-indazol-6-yl)amino)-2-oxoethyl)piperidin-3-yl)propoxy)-2-methylphenyl) picolinic acid], the “Ymin (24 h)” value (24 h) is given as “A (Ymin < 50%)”. For the same compound, the DC50 (24 h, read-out: EC50 (24 h)) was less than 100 nM.
In the case of `Cc1c(OCCC[C@H]2CCCN(CC(=O)Nc3ccc4c(C5CCC(=O)NC5=O)nn(C)c4c3)C2)cccc1-c1ccc(N2CCc3cccc(C(=O)Nc4nc5ccccc5s4)c3C2)nc1C(=O)O` (stereo partly drawn) [Compound 207b, 6-(8-(benzo[d]thiazol-2-ylcarbamoyl)-3,4-dihydroisoquinolin-2(1H)-yl)-3-(3-(3-((3R)-1-(2-((3-(2,6-dioxopiperidin-3-yl)-1-methyl-1H-indazol-6-yl)amino)-2-oxoethyl)piperidin-3-yl)propoxy)-2-methylphenyl)picolinic acid], the “Ymin (6 h)” value (6 h) was “B (50% ≤ Ymin < 70%)”. Further, the “Ymin (24 h)” value (24 h) is reported as “A (Ymin < 50%)”. Further, the DC50 runs as follows: (6 h, read-out: EC50 (6 h)) less than 100 nM; (24 h, read-out: EC50 (24 h)) less than 100 nM.
